Test results reported in patent US20230278972A1, “SUBSTITUTED HALOALKYL SULFONANILIDE HERBICIDES” (FMC Corporation, priority 2020, published 2023).

Assays:
Type in all cases: in vivo
[1] = test system: Foxtail, Giant (giant foxtail, Setaria faberi); assay: Test A1 preemergence, Foxtail, Giant
In short: (§1)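 Seeds were first planted into a blend of loam soil and sand and given a preemergence directed soil spray. In parallel, pots of the same soil were sown for postemergence application once plants reached 2 to 10 cm and the one- to two-leaf stage. Both used surfactant-containing non-phytotoxic solvent formulations.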

[2] = test system: goosegrass (Eleusine indica); assay: Test A1 preemergence, goosegrass
In short: as §1

[3] = test system: Oat, Wild (wild oat, Avena fatua); assay: Test A1 preemergence, Oat, Wild
In short: as §1

[4] = test system: Pigweed, Palmer (palmer amaranth, palmer pigweed, Amaranthus palmeri); assay: Test A1 preemergence, Pigweed, Palmer
In short: as §1

soybean (Glycine max) = assay: Test A1 preemergence, soybean
In short: as §1

[5] = test system: blackgrass (Alopecurus myosuroides); assay: Test A1 postemergence, blackgrass; details: 0 to 100 scale (0 no effect, 100 complete control); for Plant response rating, Blackgrass: Postemergence
In short: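 Pre: seeds in loam/sand blend, directed soil spray. Post: potted plants, same soil, 2–10 cm, 1–2 leaf stage. Chemicals in non-phytotoxic solvent + surfactant for both.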

corn (Zea mays) = assay: Test A1 postemergence, corn; details: for Plant response rating, Corn: Postemergence
In short: as §1

[6] = test system: barnyardgrass (Echinochloa crus-galli); assay: Test B1 flooded paddy test, barnyardgrass; details: 250 g ai/ha, Flood, applied to paddy water, 2-leaf stage, visually evaluated after 10 to 14 days
Description: (§2) A dash (-) response means no test result.

[7] = test system: ducksalad (Heteranthera limosa); assay: Test B1 flooded paddy test, ducksalad; details: 250 g ai/ha, Flood, applied to paddy water, 2-leaf stage, visually evaluated after 10 to 14 days
Description: as §2

[8] = 31 g ai/ha, 0 to 100 scale (0 no effect, 100 complete control)
[9] = 125 g ai/ha, 0 to 100 scale, 0 no effect, 100 complete control
[10] = 31 g ai/ha, 0 to 100 scale (0 no effect, 100 complete control), 10 days

Compound	Plant response rating, Foxtail, Giant [1, 8]	Plant response rating, Foxtail, Giant [1, 9]	Plant response rating, Goosegrass [2, 8]	Plant response rating, Goosegrass [2, 9]	Plant response rating, Oat, Wild [3, 8]	Plant response rating, Oat, Wild [3, 9]	Plant response rating, Pigweed, Palmer [4, 8]	Plant response rating, Pigweed, Palmer [4, 9]	Plant response rating, Soybean (soybean (Glycine max); [8])	Plant response rating, Soybean (soybean (Glycine max); [9])	Plant response rating, Blackgrass ([5]; 31 g ai/ha, 10 days)	Plant response rating, Blackgrass ([5]; 125 g ai/ha)	Plant response rating, Corn (corn (Zea mays); [10])	Plant response rating, Corn (corn (Zea mays); 125 g ai/ha, 0 to 100 scale)	Plant response rating, Barnyardgrass (0 to 100 scale, 0 is no effect, 100 is complete control) [6]	Plant response rating, Ducksalad (0 to 100 scale, 0 is no effect, 100 is complete control) [7]	Blackgrass plant response rating ([5]; 31 g ai/ha, postemergence)	Plant response rating, Blackgrass ([5]; 125 g ai/ha, 10 days)	Corn plant response rating (corn (Zea mays); 31 g ai/ha, postemergence, 0 to 100 scale (0 no effect, 100 complete control))	Plant response rating, Corn (corn (Zea mays); 125 g ai/ha, 0 to 100 scale (0 no effect, 100 complete control), 10 days)
CCOC(=O)N(c1cc(C(=O)N2C[C@@H](C)O[C@H](C)C2)c(C)c(C)c1C)S(=O)(=O)C(F)(F)F (relative stereo) [Compound 374]	50	100	60	100	0	30	60	80	0	70	0	10	60	70	40	85				
CCC1ON=C(c2cc(N(C(=O)OCC(C)C)S(=O)(=O)C(F)(F)F)c(C)cc2C)C1CC (stereo not shown) [Compound 348]	30	90	30	90	0	10	10	90	30	40	0	90	0	20	95	40				
Cc1cc(C)c(N(COC(=O)C(C)(C)C)S(=O)(=O)C(F)(F)F)cc1C1=NOC2CCCCCC12 (single isomer, unassigned) [Compound 294]	0	20	0	90	0	20	10	30	0	0	0	0	10	20	95	70				
Cc1c(NS(=O)(=O)C(F)(F)F)cc(C(=O)N2CCC(F)CC2)c(C)c1C [Compound 358]	80	100	30	100	0	10	90	90	50	70	0	0	0	0	50	0				
CCOC(=O)N(c1cc(C(=O)N2CCOCC2)c(C)c(C)c1C)S(=O)(=O)C(F)(F)F [Compound 325]	30	100	100	100	0	70	80	100	0	60	0	90	10	30	95	95				
CCC1ON=C(c2cc(N(COC(=O)C(C)(C)C)S(=O)(=O)C(F)(F)F)c(C)cc2C)C1CC (stereo not shown) [Compound 347]	0	60	10	60	0	0	20	50	0	0	0	30	0	10	95	55				
Cc1cc(C)c(N(COC(=O)C(C)(C)C)S(=O)(=O)C(F)(F)F)cc1N1CCC2(CCC(C)CC2)C1=O (stereo not shown) [Compound 401]	0	0	0	30	0	0	0	20	0	0					98	45	0	30	10	60
Cc1cc(C(F)(F)F)c(C2=NOC3CCCC23)cc1NS(=O)(=O)C(F)(F)F (stereo not shown) [Compound 306]	0	20	50	100	0	10	50	100	0	0	0	0	0	0	0	85				
Cc1c(NS(=O)(=O)C(F)(F)F)cc(C(=O)N2CCOCC2)c(C)c1C [Compound 289, 1,1,1-Trifluoro-N-[2,3,4-trimethyl-5-(4-morpholinylcarbonyl)phenyl]methanesulfonamide]	30	100	80	90	20	50	90	100	20	60	0	10	0	20	85	95				
Cc1c(C(=O)N2C[C@@H](C)O[C@H](C)C2)cc(N(COC(=O)C(C)(C)C)S(=O)(=O)C(F)(F)F)c(C)c1C (relative stereo) [Compound 373]	0	90	30	100	0	0	20	40	0	10	0	10	0	40	95	85				
Cc1cc(F)c(C2=NOC3CCCC23)cc1NS(=O)(=O)C(F)(F)F (stereo not shown) [Compound 310]	0	20	0	0	0	0	0	70	0	0	0	0	0	0	0	0				
COc1cnn(-c2cc(NS(=O)(=O)C(F)(F)F)c(C)cc2C)c(=O)c1OC [Compound 282]	0	30	0	90	20	30	0	80	20	20	0	20	0	80	0	65				
Cc1cc(C)c(N(C(=O)OCC(C)C)S(=O)(=O)C(F)(F)F)cc1C1=NOC2CCCC12 (stereo not shown) [Compound 299]	0	40	60	90	0	20	0	70	0	0	0	0	0	0	95	55				
